The test system of assay [1] is liver cancer cells (HEPA1-6) transplanted tumors. Kind of assay: Pantothenic acid for tumor prevention and treatment in mice: size of subcutaneously transplanted tumors. Format: in vivo, C57BL/6 mice. To be noted: gavage 0.02 g/ml; HEPA1-6 subcutaneous tumor; p<0.01; FIG. 4 and FIG. 5. The source says:
FIG. 3 is a schematic diagram of the experimental procedure for detecting pantothenic acid, the metabolite of the intestinal bacteria to enhance an accumulation of CD8^+ cytotoxic T cells in the tumor microenvironment and to treat tumors in a mouse model of liver cancer. That is, an experimental procedure of administering pantothenic acid to mice subcutaneously transplanted with liver cancer cells (HEPA1-6). The time is expressed in days (Day, d) for administering pantothenic acid or for transplanting tumor cells.
Experimental animals: Twenty-seven C57BL/6 mice aged 3 to 4 weeks old in good mental state were purchased from the Experimental Animal Center of Sun Yat-sen University. The mice were randomly divided into 3 groups, nine mice for each group, and the 3 groups were a control group (the first group), a pantothenic acid group (the second group) and a Vitamin E control group (the third group) respectively. […] After dissection, the sizes of the subcutaneously transplanted tumors were measured, and the tumor cells were collected in situ. A relative amount of the CD8^+ T lymphocytes in the tumor microenvironment was detected and analyzed by flow cytometry.

The subject of assay [2] is CD8+ T lymphocytes in the liver tumor microenvironment. Kind of assay: Relative amount of CD8+ T lymphocytes in the tumor microenvironment by flow cytometry. Format: in vivo, C57BL/6 mice. To be noted: for increase of relative amount of CD8+ T lymphocytes in the liver tumor microenvironment: one typical mouse per group, FIG. 6. An excerpt: Experimental animals: Twenty-seven C57BL/6 mice aged 3 to 4 weeks old in good mental state were purchased from the Experimental Animal Center of Sun Yat-sen University. The mice were randomly divided into 3 groups, nine mice for each group, and the 3 groups were a control group (the first group), a pantothenic acid group (the second group) and a Vitamin E control group (the third group) respectively. The 3 groups of mice were continually administered by gavage with pure water, pantothenic acid (at a concentration of 0.02 g/ml, purchased from the Sigma official website) and Vitamin E (at a concentration of 0.02 g/ml, purchased from the Sigma official website) for 3 to 4 weeks, respectively. After the mouse tumor (liver cancer) cells HEPA1-6 grew at logarithmic phase, they were digested with trypsin, and culture medium was neutralized. After centrifugation, the cells were collected, washed twice with DPBS to remove residual serum. Finally, the cells were redissolved with DPBS. After cell counting was completed, each mouse was subcutaneously inoculated with 10^6 cells into right axilla and continually treated by gavage, respectively, and the tumor-bearing mice were killed after 2 to 3 weeks. After dissection, the sizes of the subcutaneously transplanted tumors were measured, and the tumor cells were collected in situ. A relative amount of the CD8^+ T lymphocytes in the tumor microenvironment was detected and analyzed by flow cytometry.

SMILES strings stand for the structures.

With `CC(C)(CO)[C@@H](O)C(=O)NCCC(=O)O` [pantothenic acid], the “reduction of size of liver cancer cell transplanted tumors” value in assay [1] is “about 80%”. In addition, the “relative amount of CD8+ T lymphocytes in the tumor microenvironment (percentage of total cells)” value in assay [2] (compared with pure water control group and Vitamin E control group, statistical analysis, p<0.05, FIG. 7) is recorded as “significantly increases”. The “increase of relative amount of CD8+ T lymphocytes in the liver tumor microenvironment” value in assay [2] (compared with the Vitamin E control group) is “more than 3 times”; in assay [2] (compared with the pure water control group), “more than 7 times”.

For the origin of these results see patent publication US20220202754A1, “USES OF PANTOTHENIC ACID IN PREPARATION OF A COMPOSITION FOR TREATING AND/OR PREVENTING TUMORS” (REVAISSANT (SHENZHEN) BIOSCIENCES CO., LTD., priority 2019, published 2022).
